This note sets out measurements from patent US10544147B2, “Purine inhibitors of human phosphatidylinositol 3-kinase delta” (MERCK SHARP & DOHME CORP., priority 2016, dated 2020).

The target of experiment [1] is PI3Kdelta (Homo sapiens (Human), UniProt O00329). Nature of the experiment: HTRF PI3K biochemical assay, delta isoform. As to conditions: 0.3 nM enzyme, 100 uM ATP, 50 uM PIP2; form screened (neutral or TFA salt). The method, then:
(§1) HTRF PI3K Biochemical Assay to Measure Intrinsic Potency of Compound Inhibitors
(§2) This loss of signal is nonlinear with respect to both increasing product and time. This non-linear detection will impact accuracy of IC50 calculations; therefore, there is a need for a correction factor to obtain more accurate IC50 values. This correction is derived from a PIP3 standard curve run in a separate assay plate. All data were calculated using the ratio of acceptor (APC) to donor (Europium) fluorescence in each well of the assay plate. […] An IC50 was then calculated fitting the % inhibition data to the equation: % inhibition=min+(Max−min)/1+([inhibitor]/IC50)^n) where min is the % inhibition with inhibitor, max is the signal in DMSO control, and n is the Hill slope.
(§3) The biological data was collected using the methodology described above.
(In general: In TR-FRET formats the signal depends on donor and acceptor labels being close together.)

The target of experiment [2] is PI3Kalpha (Homo sapiens (Human), UniProt P42336). The experiment in a line: HTRF PI3K biochemical assay, alpha isoform (selectivity versus delta). As to conditions: ratio PI3K-alpha IC50 value/PI3K-delta IC50 value. The method, then:
as §1, §2, §3
The determination of relative selectivity for a given compound is defined as the relative ratio of the (PI3K-alphaIC50 value/PI3K-delta IC50 value).

Sequence of PI3Kdelta (O00329 whole entry, canonical isoform): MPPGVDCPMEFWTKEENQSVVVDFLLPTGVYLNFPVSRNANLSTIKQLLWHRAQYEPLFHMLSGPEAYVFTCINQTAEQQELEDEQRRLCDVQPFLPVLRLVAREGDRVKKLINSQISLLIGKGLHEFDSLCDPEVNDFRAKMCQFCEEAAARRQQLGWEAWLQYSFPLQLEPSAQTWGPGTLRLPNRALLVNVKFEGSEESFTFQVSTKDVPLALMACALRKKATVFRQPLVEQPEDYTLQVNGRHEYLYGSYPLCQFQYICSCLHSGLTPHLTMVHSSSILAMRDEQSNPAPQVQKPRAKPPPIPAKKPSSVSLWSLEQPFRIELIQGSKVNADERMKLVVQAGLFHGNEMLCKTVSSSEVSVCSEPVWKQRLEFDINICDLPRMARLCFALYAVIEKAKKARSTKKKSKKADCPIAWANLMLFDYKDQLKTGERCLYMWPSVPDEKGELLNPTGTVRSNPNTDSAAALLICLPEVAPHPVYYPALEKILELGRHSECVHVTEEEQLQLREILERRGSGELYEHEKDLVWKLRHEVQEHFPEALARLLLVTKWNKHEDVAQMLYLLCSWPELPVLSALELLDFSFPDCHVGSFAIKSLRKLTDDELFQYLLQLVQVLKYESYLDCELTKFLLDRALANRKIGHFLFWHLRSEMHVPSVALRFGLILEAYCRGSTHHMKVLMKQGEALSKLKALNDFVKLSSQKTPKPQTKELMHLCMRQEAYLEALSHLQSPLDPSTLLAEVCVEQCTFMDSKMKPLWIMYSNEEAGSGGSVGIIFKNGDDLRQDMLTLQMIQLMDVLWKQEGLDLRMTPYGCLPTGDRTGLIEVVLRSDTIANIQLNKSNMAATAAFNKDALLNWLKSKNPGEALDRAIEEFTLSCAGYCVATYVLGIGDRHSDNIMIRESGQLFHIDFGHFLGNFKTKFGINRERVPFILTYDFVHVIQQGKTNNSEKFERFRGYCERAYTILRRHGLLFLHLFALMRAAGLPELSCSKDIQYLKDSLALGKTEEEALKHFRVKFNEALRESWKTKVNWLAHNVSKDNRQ
Sequence of PI3Kdelta (P27986 whole entry partner, canonical isoform): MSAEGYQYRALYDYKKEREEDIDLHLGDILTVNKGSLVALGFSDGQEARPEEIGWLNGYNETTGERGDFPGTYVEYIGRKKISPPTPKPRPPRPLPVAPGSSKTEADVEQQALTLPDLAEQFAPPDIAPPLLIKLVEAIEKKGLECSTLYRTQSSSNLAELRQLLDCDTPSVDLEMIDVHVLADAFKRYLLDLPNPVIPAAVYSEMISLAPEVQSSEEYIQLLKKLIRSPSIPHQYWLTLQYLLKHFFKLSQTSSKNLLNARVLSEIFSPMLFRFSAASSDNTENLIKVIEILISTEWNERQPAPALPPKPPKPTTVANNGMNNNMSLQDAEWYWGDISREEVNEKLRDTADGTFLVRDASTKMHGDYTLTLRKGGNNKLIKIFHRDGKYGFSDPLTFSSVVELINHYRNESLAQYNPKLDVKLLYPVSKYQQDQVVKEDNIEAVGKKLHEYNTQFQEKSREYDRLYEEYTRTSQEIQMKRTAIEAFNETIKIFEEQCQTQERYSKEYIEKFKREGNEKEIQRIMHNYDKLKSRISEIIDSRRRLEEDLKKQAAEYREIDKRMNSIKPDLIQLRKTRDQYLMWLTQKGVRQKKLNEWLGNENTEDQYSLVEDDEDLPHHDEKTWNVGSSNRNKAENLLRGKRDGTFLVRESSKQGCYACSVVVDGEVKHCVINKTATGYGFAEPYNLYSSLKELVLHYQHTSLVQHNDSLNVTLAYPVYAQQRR
Sequence of PI3Kalpha (P42336 whole entry, canonical isoform): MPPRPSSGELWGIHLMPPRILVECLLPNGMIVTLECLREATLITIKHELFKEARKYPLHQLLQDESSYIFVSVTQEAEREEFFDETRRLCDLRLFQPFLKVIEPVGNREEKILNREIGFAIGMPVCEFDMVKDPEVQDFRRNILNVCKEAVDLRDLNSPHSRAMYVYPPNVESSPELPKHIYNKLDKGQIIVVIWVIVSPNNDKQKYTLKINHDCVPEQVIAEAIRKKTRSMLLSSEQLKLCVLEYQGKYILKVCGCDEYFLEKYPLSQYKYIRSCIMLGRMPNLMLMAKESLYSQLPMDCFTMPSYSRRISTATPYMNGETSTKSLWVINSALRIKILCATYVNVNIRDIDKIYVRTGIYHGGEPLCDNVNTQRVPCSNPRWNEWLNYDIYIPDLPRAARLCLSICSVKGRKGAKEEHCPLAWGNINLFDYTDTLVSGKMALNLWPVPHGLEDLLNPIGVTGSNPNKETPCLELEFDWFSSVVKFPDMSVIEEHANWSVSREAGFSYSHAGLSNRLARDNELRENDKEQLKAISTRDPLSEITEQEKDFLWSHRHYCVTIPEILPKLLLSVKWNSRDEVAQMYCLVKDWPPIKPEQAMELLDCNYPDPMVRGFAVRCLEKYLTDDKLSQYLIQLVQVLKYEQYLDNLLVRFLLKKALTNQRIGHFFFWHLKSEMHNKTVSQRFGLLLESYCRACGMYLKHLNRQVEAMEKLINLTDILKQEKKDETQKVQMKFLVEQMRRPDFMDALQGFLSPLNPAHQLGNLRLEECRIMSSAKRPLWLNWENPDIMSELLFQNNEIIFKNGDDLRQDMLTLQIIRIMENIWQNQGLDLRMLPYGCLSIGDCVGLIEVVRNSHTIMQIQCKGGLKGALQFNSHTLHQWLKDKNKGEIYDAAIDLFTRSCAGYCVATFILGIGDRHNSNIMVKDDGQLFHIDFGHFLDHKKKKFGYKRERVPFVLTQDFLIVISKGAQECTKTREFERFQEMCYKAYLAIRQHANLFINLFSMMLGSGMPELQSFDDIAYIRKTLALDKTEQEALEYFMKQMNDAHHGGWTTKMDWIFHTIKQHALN
Sequence of PI3Kalpha (P27986 whole entry partner, canonical isoform): as the sequence (P27986 whole entry partner, canonical isoform) above

A word on the IC50: it is the concentration that gives 50% inhibition. In the case of `CCn1c(-c2cnc(C)nc2)nc2c(-c3ccc4c(c3)C3(CCCN3S(=O)(=O)C(F)(F)F)C(=O)N4)ncnc21` (single isomer, unassigned) [Compound 3-21, (R or S)-5-(9-ethyl-8-(2-methylpyrimidin-5-yl)-9H-purin-6-yl)-1′-((trifluoromethyl)sulfonyl)spiro[indoline-3,2′-pyrrolidin]-2-one], in experiment [1], the IC50 was 0.069 µM. Moreover, the “Relative Selectivity versus PI3Kalpha” value in experiment [2] is listed as 2.

In the case of `CCn1c(-c2cnc(C)nc2)nc2c(-c3ccc4c(c3)C3(CCCN3)C(=O)N4)ncnc21` (single isomer, unassigned) [Compound 3-33, (R or S)-5-(9-ethyl-8-(2-methylpyrimidin-5-yl)-9H-purin-6-yl)spiro[indoline-3,2′-pyrrolidin]-2-one], the IC50 in experiment [1] amounted to 0.067 µM. In experiment [2], the “Relative Selectivity versus PI3Kalpha” value was over 10.

Regarding `CCn1c(-c2cnc(C)nc2)nc2c(-c3ccc4oc(=O)n(C5CCOCC5)c4c3)ncnc21` [Compound 5-9, 5-(9-ethyl-8-(2-methylpyrimidin-5-yl)-9H-purin-6-yl)-3-(tetrahydro-2H-pyran-4-yl)benzo[d]oxazol-2(3H)-one], in experiment [1], the half-inhibitory concentration (IC50) came to 0.151 µM. The “Relative Selectivity versus PI3Kalpha” value in experiment [2] was over 10.

With `Cc1ncc(-c2nc3c(-c4ccc5c(c4)C(C)(NCC(C)(F)F)C(=O)N5)ncnc3n2C)cn1` (single isomer, unassigned) [Compound 2-69, (R or S)-3-((2,2-difluoropropyl)amino)-3-methyl-5-(9-methyl-8-(2-methylpyrimidin-5-yl)-9H-purin-6-yl)indolin-2-one], the concentration for half-maximal inhibition (IC50) in experiment [1] was determined as 0.788 µM. In addition, in experiment [2], the “Relative Selectivity versus PI3Kalpha” value stood at 5.

Regarding `CCn1c(-c2cnc(C)nc2)nc2c(-c3ccc4c(c3)C(C)(N3CC(C)(O)C3)C(=O)N4)ncnc21` (single isomer, unassigned) [Compound 2-80, (R or S)-5-(9-ethyl-8-(2-methylpyrimidin-5-yl)-9H-purin-6-yl)-3-(3-hydroxy-3-methylazetidin-1-yl)-3-methylindolin-2-one], the IC50 in experiment [1] was found to be 0.007 µM. In addition, the “Relative Selectivity versus PI3Kalpha” value in experiment [2] is reported as over 10.

On to `CCn1c(-c2cnc(C)nc2)nc2c(-c3ccc4c(c3)C(C)(N3CCOCC35CCC5)C(=O)N4)ncnc21` (racemic) [Compound 2-23, (R and S)-5-[9-ethyl-8-(2-methylpyrimidin-5-yl)-9H-purin-6-yl]-3-methyl-3-(8-oxa-5-azaspiro[3.5]non-5-yl)-1,3-dihydro-2H-indol-2-one], for which the 50% inhibitory concentration (IC50) in experiment [1] amounted to 0.007 µM. Besides, in experiment [2], the “Relative Selectivity versus PI3Kalpha” value is listed as over 10.

For `CCn1c(-c2cnc(C)nc2)nc2c(-c3ccc4c(c3)C(C)(N3CC(OC)C3)C(=O)N4)ncnc21` (single isomer, unassigned) [Compound 2-78, (R or S)-5-(9-ethyl-8-(2-methylpyrimidin-5-yl)-9H-purin-6-yl)-3-(3-methoxyazetidin-1-yl)-3-methylindolin-2-one], the IC50 in experiment [1] is 0.238 µM. Besides, the “Relative Selectivity versus PI3Kalpha” value in experiment [2] is over 10.

Turning to `CCn1c(-c2cnc(C)nc2)nc2c(-c3ccc4c(c3)C(C)(CC3CC3)C(=O)N4C)ncnc21` (single isomer, unassigned) [Compound 1-10, 3-(Cyclopropylmethyl)-5-(9-ethyl-8-(2-methylpyrimidin-5-yl)-9H-purin-6-yl)-1,3-dimethylindolin-2-one], the IC50 in experiment [1] worked out at 0.194 µM. In addition, the “Relative Selectivity versus PI3Kalpha” value in experiment [2] is over 10.

`CCn1c(-c2cnc(C)nc2)nc2c(-c3ccc4oc(=O)n(C(C)C5CC5)c4c3)ncnc21` (single isomer, unassigned) [Compound 5-6, (R or S)-3-(1-cyclopropylethyl)-5-[9-ethyl-8-(2-methylpyrimidin-5-yl)-9H-purin-6-yl]-1,3-benzoxazol-2(3H)-one]: the concentration for half-maximal inhibition (IC50) in experiment [1] turned out to be 0.005 µM. Also, the “Relative Selectivity versus PI3Kalpha” value in experiment [2] was over 10.

In the case of `CCn1c(-c2cnc(C)nc2)nc2c(-c3ccc4c(c3)C3(CCCO3)C(=O)N4)ncnc21` (single isomer, unassigned) [Compound 3-30, (R or S)-5′-(9-ethyl-8-(2-methylpyrimidin-5-yl)-9H-purin-6-yl)-4,5-dihydro-3H-spiro[furan-2,3′-indolin]-2′-one], the IC50 in experiment [1] was found to be 0.156 µM. Also, in experiment [2], the “Relative Selectivity versus PI3Kalpha” value is 5.

With `CCn1c(-c2cnc(C)nc2)nc2c(-c3ccc4c(c3)C(C)(NC[C@H]3CCCO3)C(=O)N4)ncnc21` (mixture of isomers) [Compound 2-22, 5-[9-ethyl-8-(2-methylpyrimidin-5-yl)-9H-purin-6-yl]-3(R and S)-methyl-3-{[(2R)-tetrahydrofuran-2-ylmethyl]amino}-1,3-dihydro-2H-indol-2-one], the IC50 in experiment [1] was determined as 0.026 µM. Moreover, the “Relative Selectivity versus PI3Kalpha” value in experiment [2] is reported as over 10.

As to `CCn1c(-c2cnc(C)nc2)nc2c(-c3ccc4c(c3)C3(CCCN3)C(=O)N4)ncnc21` (single isomer, unassigned) [Compound 3-32, (R or S)-5-(9-ethyl-8-(2-methylpyrimidin-5-yl)-9H-purin-6-yl)spiro[indoline-3,2′-pyrrolidin]-2-one], in experiment [1], the IC50 was 0.169 µM. Also, the “Relative Selectivity versus PI3Kalpha” value in experiment [2] is reported as over 10.

As for `CCN1CCCC12C(=O)Nc1ccc(-c3ncnc4c3nc(-c3cnc(C)nc3)n4CC)cc12` (single isomer, unassigned) [Compound 3-27, (R or S)-1′-ethyl-5-(9-ethyl-8-(2-methylpyrimidin-5-yl)-9H-purin-6-yl)spiro[indoline-3,2′-pyrrolidin]-2-one], in experiment [1], the IC50 amounted to 0.009 µM. In addition, in experiment [2], the “Relative Selectivity versus PI3Kalpha” value is reported as over 10.

In the case of `CCn1c(-c2cnc(C)nc2)nc2c(-c3ccc4c(c3)C(C)(OCC3CC3)C(=O)N4)ncnc21` (single isomer, unassigned) [Compound 2-58, (R or S)-3-(cyclopropylmethoxy)-5-(9-ethyl-8-(2-methylpyrimidin-5-yl)-9H-purin-6-yl)-3-methylindolin-2-one], in experiment [1], the IC50 came to 0.007 µM. Besides, the “Relative Selectivity versus PI3Kalpha” value in experiment [2] was over 10.

Take `CCn1c(-c2cnc(C)nc2)nc2c(-c3cnc4c(c3)C(C)(CC(C)C)C(=O)N4)ncnc21` (single isomer, unassigned) [Compound 1-13, 5-(9-ethyl-8-(2-methylpyrimidin-5-yl)-9H-purin-6-yl)-3-isobutyl-3-methyl-1,3-dihydro-2H-pyrrolo[2,3-b]pyridin-2-one]: the IC50 in experiment [1] was 0.37 µM. Moreover, the “Relative Selectivity versus PI3Kalpha” value in experiment [2] was over 10.

Turning to `CCn1c(-c2cnc(C)nc2)nc2c(-c3ccc4c(c3)C(C)(NCC3(F)COC3)C(=O)N4)ncnc21` (single isomer, unassigned) [Compound 2-72, (R or S)-5-(9-ethyl-8-(2-methylpyrimidin-5-yl)-9H-purin-6-yl)-3-(((3-fluorooxetan-3-yl)methyl)amino)-3-methylindolin-2-one], the 50% inhibitory concentration (IC50) in experiment [1] turned out to be 0.003 µM. In addition, the “Relative Selectivity versus PI3Kalpha” value in experiment [2] was over 10.

As for `CCn1c(-c2cnc(C)nc2)nc2c(-c3cnc4c(c3)C(C)(CC3CC3)C(=O)N4)ncnc21` (single isomer, unassigned) [Compound 1-15, (R or S)-3-(cyclopropylmethyl)-5-(9-ethyl-8-(2-methylpyrimidin-5-yl)-9H-purin-6-yl)-3-methyl-1,3-dihydro-2H-pyrrolo[2,3-b]pyridin-2-one], the IC50 in experiment [1] was determined as 0.224 µM. Besides, the “Relative Selectivity versus PI3Kalpha” value in experiment [2] is on record as over 10.
